Experimental data reported in patent US7786143B2, “Thiazolyl piperidine derivatives” (Hoffman-La Roche Inc., priority 2005, dated 2010).

Each molecule was assayed against T1, histamine 3 receptor (H3R) (Homo sapiens, UniProt Q9Y5N1) (assay: Binding assay with 3H-(R)α-methylhistamine, competition binding on membranes of the human HR3-CHO cell line). Settings: competition with 3H(R)α-methylhistamine (1 nM), Ki calculated from IC50 by Cheng-Prusoff.
T1 construct: expressed in transfected cells; host or cells: CHO cells (HR3-CHO)
Procedure: Binding Assay with ^3H-(R)α-methylhistamine
Saturation binding experiments were performed using HR3-CHO membranes prepared as described in Takahashi, K, Tokita, S., Kotani, H. (2003) J. Pharmacol. Exp. Therapeutics 307, 213-218.
An appropriate amount of membrane (60 to 80 μg protein/well) was incubated with increasing concentrations of ^3H(R)α-Methylhistamine di-hydrochloride (0.10 to 10 nM). Non specific binding was determined using a 200 fold excess of cold (R)α-Methylhistamine dihydrobromide (500 nM final concentration). The incubation was carried out at room temperature (in deep-well plates shaking for three hours). The final volume in each well was 250 μl. The incubation was followed by rapid filtration on GF/B filters (pre-soaked with 100 μl of 0.5% PEI in Tris 50 mM shaking at 200 rpm for two hours). The filtration was made using a cell-harvester and the filter plates were then washed five times with ice cold washing buffer containing 0.5 M NaCl. After harvesting, the plates were dried at 55° C. for 60 min, then we added scintillation fluid (Microscint 40, 40 microl in each well) and the amount of radioactivity on the filter was determined in Packard top-counter after shaking the plates for two hours at 200 rpm at room temperature.
Binding Buffer: 50 mM Tris-HCl pH 7.4 and 5 mM MgCl2×6H2O pH 7.4. Washing Buffer: 50 mM Tris-HCl pH 7.4 and 5 mM MgCl2×6H2O and 0.5 M NaCl pH 7.4.
Indirect measurement of affinity of H3R inverse agonists: twelve increasing concentrations (ranging from 10 μM to 0.3 nM) of the selected compounds were always tested in competition binding experiments using membrane of the human HR3-CHO cell line. […]
All compounds were tested at a single concentration in duplicates. […] Ki's were calculated from IC50 based on Cheng-Prusoff equation (Cheng, Y, Prusoff, W H (1973) Biochem Pharmacol 22, 3099-3108).

T1 sequence (Q9Y5N1 whole entry): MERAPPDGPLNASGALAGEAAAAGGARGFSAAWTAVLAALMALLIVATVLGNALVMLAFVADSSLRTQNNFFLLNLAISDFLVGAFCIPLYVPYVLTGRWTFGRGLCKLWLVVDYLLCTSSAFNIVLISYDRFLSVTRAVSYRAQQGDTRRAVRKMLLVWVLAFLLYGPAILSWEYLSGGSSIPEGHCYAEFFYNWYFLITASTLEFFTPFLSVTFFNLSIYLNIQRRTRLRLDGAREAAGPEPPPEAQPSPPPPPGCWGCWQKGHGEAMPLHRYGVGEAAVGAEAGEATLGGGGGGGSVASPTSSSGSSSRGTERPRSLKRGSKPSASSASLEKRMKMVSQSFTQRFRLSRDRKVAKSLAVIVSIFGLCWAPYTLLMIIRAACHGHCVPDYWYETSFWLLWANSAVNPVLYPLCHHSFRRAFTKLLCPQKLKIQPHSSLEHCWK

c1cc2c(cc1-c1csc(C3CCN(C4CCCC4)CC3)n1)OCCO2 [Example 52, 1-cyclopentyl-4-[4-(2,3-dihydro-benzo[1,4]dioxin-6-yl)-thiazol-2-yl]-piperidine] and CC1CCCCN1C(=O)c1csc(C2CCN(C3CCCC3)CC2)n1 (stereo not drawn) [Example 68, [2-(1-cyclopentyl-piperidin-4-yl)-thiazol-4-yl]-(2-methyl-piperidin-1-yl)-methanone] are within 1.5-fold of each other in Ki: 123 nM for the first, 156 nM for the second.

For COc1ccc(-c2csc(C3CCN(C(C)C)CC3)n2)cc1 [Example 9, 1-isopropyl-4-[4-(4-methoxy-phenyl)-thiazol-2-yl]-piperidine], the Ki was 28 nM.
